Here are results for six compounds from publication PMC8346900 (Proceedings of the National Academy of Sciences of the …, 2021).

The target of one data set is recombinant CaMKIIα (Homo sapiens, UniProt Q9UQM7). Description: ADP-Glo assay, syntide-II phosphorylation. It counts as biochemical. Particulars: fixed concentration of CaM, wide concentration span. (In ADP-Glo the light output rises with the ADP produced.)
The nature of data set [1]: Body temperature recordings in mice. It counts as in vivo, mouse. Particulars: C57/B6 mice, i.p.; GHB 275 mg/kg, HOCPCA 175 mg/kg.
A further data set addresses T1, CaMKIIα WT hub (Homo sapiens, UniProt Q9UQM7).
T1 sequence (Q9UQM7 345-475): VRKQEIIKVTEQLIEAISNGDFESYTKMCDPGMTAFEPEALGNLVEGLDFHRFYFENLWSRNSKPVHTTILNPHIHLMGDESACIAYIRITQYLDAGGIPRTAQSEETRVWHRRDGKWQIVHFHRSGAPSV
Kind of data set: Thermal shift assay by differential scanning fluorimetry. Particulars: saturating concentrations, pH 6. Type of data set: binding. On the technique in general: Differential scanning fluorimetry follows unfolding on heating by fluorescence.

The target in another data set is GABAB receptors. Conditions: cited from earlier work.
For another data set, the system named is hippocampal neurons. Description: Glu excitotoxicity in cultured hippocampal neurons, live/dead staining. Type of data set: cell-based, mouse. Particulars: for Cell survival after Glu: Camk2a-/- neurons.
Data set [2] relates to CaMKIIα Thr286 autophosphorylation. Description: Thr286 autophosphorylation by Western blot in cultured cortical neurons. It counts as cell-based, mouse. Conditions: 1 h, HOCPCA 3 mM.
The target of data set [3] is T2, CaMKIIα wild-type (WT) hub protein (Homo sapiens, UniProt Q9UQM7).
T2 sequence (Q9UQM7 345-475): T1 sequence (Q9UQM7 345-475)
Description: Intrinsic tryptophan fluorescence. Type of data set: binding. Conditions: increasing concentrations.

Data set [4] deals with mouse hippocampal slices (CA3–CA1). Kind of data set: Ex vivo LTP recordings in hippocampal slices. Conditions: bath application, 100 μM, 100 Hz induction.
In a further data set the test system is C57/B6 mice. Description: Photothrombotic stroke model of focal ischemia.
A further data set relates to cortical neurons. Description: Glu/Gly excitotoxicity in cultured cortical neurons, LDH release. Type of data set: cell-based, mouse. (Release of lactate dehydrogenase indicates damage to the cell membrane.)
Data set [5] addresses CaMKIIβ/γ/δ subtypes; CaMKIIα Δhub (Rattus norvegicus, UniProt P11275). Type of data set: binding. Conditions: HEK293T cells transiently expressing Δhub.
Data set [6] deals with CaMKIIβ/γ/δ subtypes; CaMKIIα Δhub. It counts as binding, rat. Conditions: heterologously expressed in HEK293T cells.
Data set [7] has as its system CaMKIIα (mouse brain slices). Description: In vitro autoradiography on Camk2a and Camk2b +/+ and -/- mouse brain slices. Type of data set: binding.
The mark [8] stands for this setting: 175 mg/kg at 3, 6, 12 h poststroke.

Entries after “also recorded” stand apart in the source; their conditions may differ.

Sequence of recombinant CaMKIIα (Q9UQM7 whole entry): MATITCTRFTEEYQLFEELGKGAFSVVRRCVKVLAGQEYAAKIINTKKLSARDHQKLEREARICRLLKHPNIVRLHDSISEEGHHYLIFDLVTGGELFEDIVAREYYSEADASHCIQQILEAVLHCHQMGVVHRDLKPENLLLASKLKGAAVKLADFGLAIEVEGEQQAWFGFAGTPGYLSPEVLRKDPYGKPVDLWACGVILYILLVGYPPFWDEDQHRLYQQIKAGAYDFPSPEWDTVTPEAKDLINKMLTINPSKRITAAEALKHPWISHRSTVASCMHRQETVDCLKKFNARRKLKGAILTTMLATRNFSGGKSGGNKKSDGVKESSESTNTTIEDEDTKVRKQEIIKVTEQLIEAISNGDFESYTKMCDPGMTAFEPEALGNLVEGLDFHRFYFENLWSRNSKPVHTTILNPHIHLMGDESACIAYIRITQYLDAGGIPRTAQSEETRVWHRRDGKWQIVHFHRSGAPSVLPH
Sequence of CaMKIIβ/γ/δ subtypes; CaMKIIα Δhub (Rattus norvegicus, UniProt P11275) (P11275 1-337, stated change not applied): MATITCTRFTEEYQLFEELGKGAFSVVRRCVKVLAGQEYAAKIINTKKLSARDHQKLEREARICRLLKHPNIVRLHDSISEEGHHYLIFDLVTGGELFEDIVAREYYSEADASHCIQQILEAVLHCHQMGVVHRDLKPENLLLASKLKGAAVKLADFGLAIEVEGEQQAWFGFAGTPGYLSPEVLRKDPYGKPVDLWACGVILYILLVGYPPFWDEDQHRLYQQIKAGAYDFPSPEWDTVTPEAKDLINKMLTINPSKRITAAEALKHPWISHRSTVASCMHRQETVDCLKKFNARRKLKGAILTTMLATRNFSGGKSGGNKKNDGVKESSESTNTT

One may read the Ki as the dissociation constant of the complex between target and ligand, obtained from inhibition or displacement. As to `O=C(O)CCCO` [GHB, γ-hydroxybutyrate, reference compound], on recombinant CaMKIIα, the “Effect on syntide phosphorylation by CaMKIIα” value (from here on “Effect … by CaMKIIα”) was “no effect”. Moreover, in data set [1], the “Effect on body temperature” value is reported as “strong hypothermia”. Moreover, on CaMKIIα WT hub, the “maximum Tm increase (maximum ∆Tm)” value was 13 °C. For the same compound, on GABAB receptors (GABAB receptors), the inhibition constant (Ki) was 230 µM.
Turning to `O=C(O)C1=CC(O)CC1` (stereo not drawn) [HOCPCA, 3-hydroxycyclopent-1-enecarboxylic acid], the “mean recovery compared with the Glu-only condition (live/dead ratio)” value in the data set on hippocampal neurons (Camk2a+/+ neurons, trend, not significant) was found to be 18%. Besides, the “Cell survival after Glu” value in the data set with hippocampal neurons is “neither tat-CN21 nor HOCPCA improved cell survival”. Moreover, the Cell live/dead ratio entry in the data set on hippocampal neurons (FvB hippocampal cultures, 1 mM, 1 h poststimulation, 400 μM Glu) is “significantly increased”. Moreover, the “Effect … by CaMKIIα” value on recombinant CaMKIIα is on record as “no effect”. Moreover, the “Effect on body temperature” value in data set [1] was “no hypothermia”. Also, the Thr286 autophosphorylation entry in [2] (Ca2+-stimulated conditions) and in [2] (basal conditions) was “did not affect” throughout. For the same compound, in [3], the “Quenching of Trp403 fluorescence” value is given as “not seen”. The “Long-term potentiation (LTP)” value in data set [4] is reported as “did not inhibit”. At CaMKIIα WT hub, the “maximum Tm increase (maximum ∆Tm)” value worked out at 15 °C. In addition, in the data set with GABAB receptors (at 1 mM), the “Affinity to native GABAB receptors” value is listed as “no affinity; also recorded: lack affinity”. In the data set on C57/B6 mice (setting [8]), the “Forelimb asymmetry in the cylinder test” value is reported as “improvements”. The “Motor coordination, paw placement on grid-walking task” value with C57/B6 mice (setting [8]) is “improvements”. Besides, the “reduction in infarct volume” value in the data set with C57/B6 mice (175 mg/kg at 3, 6, and 12 h poststroke, measured 7 d poststroke, young male mice) is reported as 40 to 50%. Also, the “Transport of neuroanatomical tracer biotinylated dextran amine” value in the data set with C57/B6 mice (175 mg/kg i.p., 14 days post-stroke) was “reversal of the stroke-induced decrease”. Also, in the data set on C57/B6 mice (175 mg/kg single treatment 3 h poststroke, 14 d poststroke), the “Compound action potentials (CAPs), corpus callosum” value was 50 to 60 % of control. Besides, the “Treatment effect of single dose” value with C57/B6 mice (aged female mice, 175 mg/kg) is reported as “significant treatment effects”; with C57/B6 mice (young males, 90 mg/kg, 3 h poststroke), “significant treatment effects”. Moreover, the “Cell survival (LDH)” value in the data set with cortical neurons (1 mM applied immediately or 30 min after Glu stimulation) is recorded as “did not have any effect”. Besides, the “Cell death (LDH)” value in the data set on cortical neurons (applied 1 h after Glu stimulus, concentration dependent (0.1 to 3 mM)) is “significantly reduced cell death”.
On to `COc1ccc(S(=O)(=O)N(CCO)c2ccccc2CN(C)C/C=C/c2ccc(Cl)cc2)cc1` [KN93, reference compound], for which the Thr286 autophosphorylation result in data set [2] (basal conditions) was “significant inhibition”.
As to `[3H]C1(O)C=C(C(=O)O)CC1` (stereo not drawn) [[3H]HOCPCA], the “Binding to CaMKIIα hub deletion mutant (Δhub)” value in data set [5] is given as “complete absence”. In addition, the “Binding to CaMKIIβ/γ/δ subtypes” value in data set [6] was “no [^3H]HOCPCA binding was observed”. Besides, in data set [7], the “Binding to brain slices from Camk2a-/- mice” value is recorded as “complete lack of binding”; the “Binding to brain tissue of Camk2a+/+, Camk2b+/+ and Camk2b-/- mice” value was “intact binding”.
In the case of “GRKKRRQRRRKRPPKLGQIGRSKRVVIEDDR [tat-CN21, reference compound]”, the “Live/dead ratio after Glu” value with hippocampal neurons (Camk2a+/+ neurons) was “significantly improved”. In addition, in the data set on hippocampal neurons, the “Cell survival after Glu” value was “neither tat-CN21 nor HOCPCA improved cell survival”. Further, in the data set on cortical neurons (tat-CN21 control (10 μM)), the “Cell death (LDH)” value is recorded as “significantly reduced cell death”.
On to KRPPKLGQIGRSKRVVIEDDR [CN21], for which the “Effect … by CaMKIIα” value with recombinant CaMKIIα is listed as “concentration-dependent inhibition”.
